Laboratory results: patent US9562035B2, “Benzamide derivative useful as FASN inhibitors for the treatment of cancer” (Janssen Pharmaceutica NV, priority 2013, dated 2017)

Columns and labels:
[1] = system: A2780 ovarian cells; experiment: A2780 Ovarian Cell Proliferation Assay in Lipid Reduced Medium, with Palmitate (control); assay type: cell-based; settings: Homo sapiens, A2780; lipid reduced medium, 25 μM palmitate, 96 h, MTT; read-out: Proliferation A2780 with Palmitate pIC50 (converted)
How it was run: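 Read-out was MTT absorbance at 544 nm after 96 h at 37 °C. Cells grown overnight in RPMI1640/10% FCS were moved to 10% lipid-reduced serum with compound plus palmitate (final 25 μM, 0.2% fatty-acid-free BSA, 0.2% DMSO). IC50 came from least-squares curve fitting, expressed as −log(IC50).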

[2] = target: T1, FASN Keto-reductase Domain (Homo sapiens, UniProt P49327); experiment: Fatty Acid Synthase Keto-Reductase Domain (FASN KR) Inhibition; assay type: biochemical; settings: mean where tested more than once; read-out: FASN K-R Domain pIC50 (converted)
T1 construct: 10 μL hFASN enzyme (full length, 300 ng, purified in house) and 360 μM NADPH; made in house
How it was run: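 Keto-reductase activity followed as NADPH consumption (A340 drop between 0 and 20 min, room temperature) using in-house full-length hFASN, 360 μM NADPH and ethyl acetoacetate substrate (180 mM stock), pH 7.5 phosphate buffer.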

[3] = system: A2780 ovarian cells; experiment: A2780 Ovarian Cell Proliferation Assay in Lipid Reduced Medium, without Palmitate; assay type: cell-based; settings: Homo sapiens, A2780; lipid reduced medium, without palmitate, 96 h, MTT; read-out: Proliferation A2780 w/o Palmitate pIC50 (converted)
How it was run: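 A2780 cells were seeded in 10% FCS medium and switched next day to 10% lipid-reduced serum without palmitate. Compounds at 0.01–30 μM were added with 0.2% DMSO, 0.2% fatty-acid-free BSA and 0.25% ethanol final. After 96 h, MTT absorbance at 544 nm was normalized to plate controls, and IC50/pIC50 came from a 4-parameter logistic fit.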

[4] = target: T2, hFASN enzyme (full length) (Homo sapiens, UniProt P49327); experiment: Fatty Acid Synthase (FASN) Inhibition Scintillation Proximity Assay; assay type: biochemical; settings: for IC50: mean where tested more than once, ~ = standard error of pIC50 larger than 0.5; for inhibition at 10 µM: read-out: FASN % Effect @1E−05M
T2 construct: 10 μL hFASN enzyme (full length, 300 ng, purified in house); made in house
How it was run: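 Eight compound concentrations (0.01–30 μM) tested in pH 7.5 phosphate buffer with DTT; human full-length enzyme converted [3H]-acetyl-CoA plus malonyl-CoA, with NADPH, over 60 min at room temperature. Hydrophobic [3H]-palmitate detected by bead proximity scintillation imaging; control-normalised data fitted for IC50/pIC50.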

T1 sequence (P49327 whole entry, the tested form may be a part): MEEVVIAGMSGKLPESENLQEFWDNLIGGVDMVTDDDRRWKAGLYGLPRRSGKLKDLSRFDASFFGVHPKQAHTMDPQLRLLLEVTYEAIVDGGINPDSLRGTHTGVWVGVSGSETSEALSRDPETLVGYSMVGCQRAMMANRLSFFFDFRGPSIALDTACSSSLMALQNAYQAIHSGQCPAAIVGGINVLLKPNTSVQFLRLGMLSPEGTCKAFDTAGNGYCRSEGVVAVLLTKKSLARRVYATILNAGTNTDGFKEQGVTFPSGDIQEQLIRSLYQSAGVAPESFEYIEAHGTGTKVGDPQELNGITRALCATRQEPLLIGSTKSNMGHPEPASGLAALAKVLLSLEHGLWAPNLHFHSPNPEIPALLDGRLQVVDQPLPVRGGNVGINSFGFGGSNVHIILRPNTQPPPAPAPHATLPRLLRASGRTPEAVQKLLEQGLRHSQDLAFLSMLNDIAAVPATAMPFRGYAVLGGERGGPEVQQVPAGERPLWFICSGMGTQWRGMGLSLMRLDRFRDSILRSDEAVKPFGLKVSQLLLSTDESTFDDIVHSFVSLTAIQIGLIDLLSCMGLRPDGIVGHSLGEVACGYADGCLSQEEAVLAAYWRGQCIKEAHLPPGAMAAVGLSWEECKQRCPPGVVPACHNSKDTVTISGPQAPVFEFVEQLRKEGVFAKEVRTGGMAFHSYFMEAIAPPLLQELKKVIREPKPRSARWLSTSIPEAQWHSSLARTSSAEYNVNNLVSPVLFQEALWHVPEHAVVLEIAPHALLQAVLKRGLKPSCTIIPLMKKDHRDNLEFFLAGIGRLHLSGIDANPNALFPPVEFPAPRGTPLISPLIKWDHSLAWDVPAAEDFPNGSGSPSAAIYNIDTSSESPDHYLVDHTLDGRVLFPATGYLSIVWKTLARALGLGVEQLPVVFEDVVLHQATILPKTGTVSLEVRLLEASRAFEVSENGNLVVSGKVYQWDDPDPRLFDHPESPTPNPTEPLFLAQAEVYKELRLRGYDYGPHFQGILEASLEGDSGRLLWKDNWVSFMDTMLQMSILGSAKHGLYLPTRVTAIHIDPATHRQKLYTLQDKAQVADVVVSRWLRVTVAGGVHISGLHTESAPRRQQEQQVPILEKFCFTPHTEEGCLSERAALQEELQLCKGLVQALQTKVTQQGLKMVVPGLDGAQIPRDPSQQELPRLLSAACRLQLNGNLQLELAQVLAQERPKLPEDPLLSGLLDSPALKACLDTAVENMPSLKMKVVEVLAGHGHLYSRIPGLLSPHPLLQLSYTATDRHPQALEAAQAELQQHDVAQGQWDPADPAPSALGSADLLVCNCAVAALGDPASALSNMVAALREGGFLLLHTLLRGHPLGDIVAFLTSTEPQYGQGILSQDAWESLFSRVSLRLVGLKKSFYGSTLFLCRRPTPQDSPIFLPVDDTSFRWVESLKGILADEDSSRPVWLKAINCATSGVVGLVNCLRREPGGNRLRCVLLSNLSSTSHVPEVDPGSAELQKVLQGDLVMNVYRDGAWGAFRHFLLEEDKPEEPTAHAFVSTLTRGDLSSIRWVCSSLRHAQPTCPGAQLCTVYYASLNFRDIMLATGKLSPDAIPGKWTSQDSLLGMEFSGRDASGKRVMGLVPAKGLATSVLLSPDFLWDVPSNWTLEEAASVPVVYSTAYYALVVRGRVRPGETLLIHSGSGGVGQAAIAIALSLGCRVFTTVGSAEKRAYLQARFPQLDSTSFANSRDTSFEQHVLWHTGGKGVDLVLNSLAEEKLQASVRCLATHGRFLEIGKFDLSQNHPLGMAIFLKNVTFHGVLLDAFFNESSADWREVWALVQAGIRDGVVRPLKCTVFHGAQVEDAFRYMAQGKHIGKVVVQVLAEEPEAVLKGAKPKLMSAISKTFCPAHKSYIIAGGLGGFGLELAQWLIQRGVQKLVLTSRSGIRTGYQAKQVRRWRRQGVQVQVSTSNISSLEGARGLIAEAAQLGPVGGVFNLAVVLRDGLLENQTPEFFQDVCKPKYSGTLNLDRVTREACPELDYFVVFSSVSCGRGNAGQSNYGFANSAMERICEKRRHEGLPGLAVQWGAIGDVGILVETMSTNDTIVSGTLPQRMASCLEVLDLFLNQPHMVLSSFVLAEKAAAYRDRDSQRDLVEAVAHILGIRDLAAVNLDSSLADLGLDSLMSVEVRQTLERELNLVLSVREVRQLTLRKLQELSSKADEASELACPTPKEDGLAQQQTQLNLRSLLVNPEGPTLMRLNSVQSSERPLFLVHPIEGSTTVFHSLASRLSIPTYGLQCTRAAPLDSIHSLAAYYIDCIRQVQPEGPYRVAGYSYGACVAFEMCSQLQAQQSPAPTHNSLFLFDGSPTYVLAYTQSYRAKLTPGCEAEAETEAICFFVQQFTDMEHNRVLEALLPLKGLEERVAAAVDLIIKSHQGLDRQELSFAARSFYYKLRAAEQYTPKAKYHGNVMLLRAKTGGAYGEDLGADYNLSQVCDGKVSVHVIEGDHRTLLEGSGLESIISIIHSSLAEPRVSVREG
T2 sequence (P49327 whole entry): as the sequence (P49327 whole entry, the tested form may be a part) above

| Compound | IC50 [1] | IC50 [2] | IC50 [3] | IC50 [4] | inhibition at 10 µM [4] |
| --- | --- | --- | --- | --- | --- |
| Cc1ccc(C(=O)N2CCC(c3ccc(-c4cnn(C)c4)cc3)CC2)cc1NC(=O)C1CCN(CCC(C)C)C1 (stereo not shown) [Compound 195, 1-isopentyl-N-(2-methyl-5-(4-(4-(1-methyl-1H-pyrazol-4-yl)phenyl)piperidine-1-carbonyl)phenyl)pyrrolidine-3-carboxamide] | 9120 nM | 191 nM | 110 nM | 69.2 nM | 101% |
| CCCCC(C)N1CC(C(=O)Nc2cc(C(=O)N3CCC(c4ccc(-c5cnn(C)c5)cc4)CC3)ccc2C)C1 (stereo not shown) [Compound 196, 1-(hexan-2-yl)-N-(2-methyl-5-(4-(4-(1-methyl-1H-pyrazol-4-yl)phenyl)piperidine-1-carbonyl)phenyl)azetidine-3-carboxamide] | ~6170 nM | 282 nM | 407 nM | 162 nM | 97% |
| CCCCC(C)N1CCC(C(=O)Nc2cc(C(=O)N3CCC(c4ccc(-c5cnn(C)c5)cc4)CC3)ccc2C)C1 (stereo not shown) [Compound 197, 1-(hexan-2-yl)-N-(2-methyl-5-(4-(4-(1-methyl-1H-pyrazol-4-yl)phenyl)piperidine-1-carbonyl)phenyl)pyrrolidine-3-carboxamide] | > 10000 nM | 309 nM | 288 nM | 110 nM | 98% |
| Cc1ccc(C(=O)N2CCC(c3ccc(-c4cnn(C)c4)cc3)CC2)cc1NC(=O)c1nccs1 [Compound 198, N-(2-methyl-5-(4-(4-(1-methyl-1H-pyrazol-4-yl)phenyl)piperidine-1-carbonyl)phenyl)thiazole-2-carboxamide] | > 10000 nM | 372 nM | 603 nM | 135 nM | 100% |
| COc1ccc(-c2ccc(C3CCN(C(=O)c4ccc(C)c(NC(=O)c5ccc(NC(C)C)nc5)c4)CC3)cc2)cc1 [Compound 199, 6-(isopropylamino)-N-(5-(4-(4′-methoxy-[1,1′-biphenyl]-4-yl)piperidine-1-carbonyl)-2-methylphenyl)nicotinamide] | 617 nM | 724 nM | 562 nM | ~676 nM | 59% |
| COc1ccccc1-c1ccc(C2CCN(C(=O)c3ccc(C)c(NC(=O)c4ccc(NC(C)C)nc4)c3)CC2)cc1 [Compound 200, 6-(isopropylamino)-N-(5-(4-(2′-methoxy-[1,1′-biphenyl]-4-yl)piperidine-1-carbonyl)-2-methylphenyl)nicotinamide] | 4570 nM | 646 nM | 708 nM | 646 nM | 86% |
| COc1cccc(-c2ccc(C3CCN(C(=O)c4ccc(C)c(NC(=O)c5ccc(NC(C)C)nc5)c4)CC3)cc2)c1 [Compound 201, 6-(isopropylamino)-N-(5-(4-(3′-methoxy-[1,1′-biphenyl]-4-yl)piperidine-1-carbonyl)-2-methylphenyl)nicotinamide] | 933 nM | 380 nM | 513 nM | 214 nM | 86% |
| COc1ccc(C(=O)N2CC(c3ccc(-c4cnn(C)c4)cc3)C2)cc1NC(=O)c1ccc(NC(C)C)nc1 [Compound 202, 6-(isopropylamino)-N-(2-methoxy-5-(3-(4-(1-methyl-1H-pyrazol-4-yl)phenyl)azetidine-1-carbonyl)phenyl)nicotinamide] | > 10000 nM | 151 nM | 58.9 nM | 52.5 nM | 113% |
| Cc1ccc(C(=O)N2CCC(c3ccc(-c4cnn(C)c4)cc3)C2)cc1NC(=O)c1ccc(Cl)nc1 (stereo not shown) [Compound 203, 6-chloro-N-(2-methyl-5-(3-(4-(1-methyl-1H-pyrazol-4-yl)phenyl)pyrrolidine-1-carbonyl)phenyl)nicotinamide] | > 10000 nM | 977 nM | 372 nM | 282 nM | 97% |
| Cc1ccc(C(=O)N2CCC(c3ccc(-c4cnn(C)c4)cc3)C2)cc1NC(=O)c1ccc(N2CCOCC2)nc1 (stereo not shown) [Compound 204, N-(2-methyl-5-(3-(4-(1-methyl-1H-pyrazol-4-yl)phenyl)pyrrolidine-1-carbonyl)phenyl)-6-morpholinonicotinamide] | > 10000 nM | 398 nM | 107 nM | 129 nM | 107% |

More lines, now with the values ahead:

| IC50 [1] | IC50 [2] | IC50 [3] | IC50 [4] | inhibition at 10 µM [4] | Compound |
| --- | --- | --- | --- | --- | --- |
| > 10000 nM | 589 nM | 355 nM | 269 nM | 95% | CCN1CC(C(=O)Nc2cc(C(=O)N3CCC(c4ccc(-c5cnn(C)c5)cc4)CC3)ccc2C)C1 [Compound 205, 1-ethyl-N-(2-methyl-5-(4-(4-(1-methyl-1H-pyrazol-4-yl)phenyl)piperidine-1-carbonyl)phenyl)azetidine-3-carboxamide] |
| > 10000 nM | 457 nM | 151 nM | 158 nM | 99% | Cc1ccc(C(=O)N2CCC(c3ccc(-c4cnn(C)c4)cc3)CC2)cc1NC(=O)C1CN(C(C)C)C1 [Compound 206, 1-isopropyl-N-(2-methyl-5-(4-(4-(1-methyl-1H-pyrazol-4-yl)phenyl)piperidine-1-carbonyl)phenyl)azetidine-3-carboxamide] |
| > 10000 nM | 479 nM | 182 nM | 132 nM | 105% | Cc1ccc(C(=O)N2CCC(c3ccc(-c4cnn(C)c4)cc3)CC2)cc1NC(=O)C1CCN(C(C)C)C1 (stereo not shown) [Compound 207, 1-isopropyl-N-(2-methyl-5-(4-(4-(1-methyl-1H-pyrazol-4-yl)phenyl)piperidine-1-carbonyl)phenyl)pyrrolidine-3-carboxamide] |
| > 10000 nM | 631 nM | 275 nM | 269 nM | 101% | CCCN1CC(C(=O)Nc2cc(C(=O)N3CCC(c4ccc(-c5cnn(C)c5)cc4)CC3)ccc2C)C1 [Compound 208, N-(2-methyl-5-(4-(4-(1-methyl-1H-pyrazol-4-yl)phenyl)piperidine-1-carbonyl)phenyl)-1-propylazetidine-3-carboxamide] |
| > 10000 nM | 74.1 nM | 10 nM | 31.6 nM | 105% | Cc1ccc(C(=O)N2CCC(c3ccc(-c4cnn(C)c4)cc3)CC2)cc1NC(=O)C1CCN(C2CCC2)CC1 [Compound 209, 1-cyclobutyl-N-(2-methyl-5-(4-(4-(1-methyl-1H-pyrazol-4-yl)phenyl)piperidine-1-carbonyl)phenyl)piperidine-4-carboxamide] |
| > 10000 nM | 309 nM | 110 nM | 85.1 nM | 108% | Cc1ccc(C(=O)N2CCC(c3ccc(-c4cnn(C)c4)cc3)CC2)cc1NC(=O)C1CN(CC(C)C)C1 [Compound 210, 1-isobutyl-N-(2-methyl-5-(4-(4-(1-methyl-1H-pyrazol-4-yl)phenyl)piperidine-1-carbonyl)phenyl)azetidine-3-carboxamide] |
| > 10000 nM | 74.1 nM | 18.6 nM | 31.6 nM | 113% | CCCCN1CCC(C(=O)Nc2cc(C(=O)N3CCC(c4ccc(-c5cnn(C)c5)cc4)CC3)ccc2C)CC1 [Compound 211, 1-butyl-N-(2-methyl-5-(4-(4-(1-methyl-1H-pyrazol-4-yl)phenyl)piperidine-1-carbonyl)phenyl)piperidine-4-carboxamide] |
